Columns and labels:
Assay in all cases: relative viability (nuclei count vs DMSO), 5 days (fraction); higher = more cells survive
SK-LU-1 = system: SK-LU-1
Summary of the method: (§1)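 Lung cancer cell lines were pin-tool dosed in 1536-well plates on the day after seeding, with either a lone drug or a fixed anchor-drug dose plus five library-drug doses (not always all listed) in √10 steps. Nuclei were counted on 4× images after 5 days. Relative viability is the ratio of treated-well to vehicle-well nuclei counts, with each value a median of duplicate plates.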

UMC-11 = system: UMC-11
Summary of the method: as §1

NCI-H322M = system: NCI-H322M
Summary of the method: as §1

NCI-H647 = system: NCI-H647
Summary of the method: as §1

NCI-H1755 = system: NCI-H1755
Summary of the method: as §1

NCI-H596 = system: NCI-H596
Summary of the method: as §1

HOP-62 = system: HOP-62
Summary of the method: as §1

LCLC-103H = system: LCLC-103H
Summary of the method: as §1

COR-L 105 = system: COR-L 105
Summary of the method: as §1

CAL-12T = system: CAL-12T
Summary of the method: as §1

HCC-44 = system: HCC-44
Summary of the method: as §1

EKVX = system: EKVX
Summary of the method: as §1

NCI-H1793 = system: NCI-H1793
Summary of the method: as §1

NCI-H520 = system: NCI-H520
Summary of the method: as §1

201T = system: 201T
Summary of the method: as §1

NCI-H2009 = system: NCI-H2009
Summary of the method: as §1

NCI-H1437 = system: NCI-H1437
Summary of the method: as §1

HCC-827 = system: HCC-827
Summary of the method: as §1

NCI-H441 = system: NCI-H441
Summary of the method: as §1

H3255 = system: H3255
Summary of the method: as §1

EPLC-272H = system: EPLC-272H
Summary of the method: as §1

HCC-15 = system: HCC-15
Summary of the method: as §1

NCI-H1355 = system: NCI-H1355
Summary of the method: as §1

PC-3 [JPC-3] = system: PC-3 [JPC-3]
Summary of the method: as §1

Nc1cccc2c1CN(C1CCC(=O)NC1=O)C2=O (centres undefined) [Lenalidomide] + C[C@]1(O)C[C@@H](c2nc(-c3ccc4ccc(-c5ccccc5)nc4c3)c3c(N)nccn32)C1 [Linsitinib] (partner 1 µM)
relative viability (SK-LU-1; first compound 0.253 µM): 1.1
relative viability (SK-LU-1; first compound 0.8 µM): 1.01
relative viability (SK-LU-1; first compound 2.53 µM): 1.19
relative viability (SK-LU-1; first compound 8 µM): 1.16
relative viability (UMC-11; first compound 0.253 µM): 1.03
relative viability (UMC-11; first compound 0.8 µM): 0.927
relative viability (UMC-11; first compound 2.53 µM): 1.08
relative viability (UMC-11; first compound 8 µM): 1.04
relative viability (NCI-H322M; first compound 0.253 µM): 0.912
relative viability (NCI-H322M; first compound 0.8 µM): 1.06
relative viability (NCI-H322M; first compound 2.53 µM): 0.856
relative viability (NCI-H322M; first compound 8 µM): 0.708
relative viability (NCI-H647; first compound 0.253 µM): 1.16
relative viability (NCI-H647; first compound 0.8 µM): 1.14
relative viability (NCI-H647; first compound 2.53 µM): 1.32
relative viability (NCI-H647; first compound 8 µM): 0.932
relative viability (NCI-H1755; first compound 0.253 µM): 0.968
relative viability (NCI-H1755; first compound 0.8 µM): 1.01
relative viability (NCI-H1755; first compound 2.53 µM): 0.983
relative viability (NCI-H1755; first compound 8 µM): 0.897
relative viability (NCI-H596; first compound 0.253 µM): 1.07
relative viability (NCI-H596; first compound 0.8 µM): 1.03
relative viability (NCI-H596; first compound 2.53 µM): 1.23
relative viability (NCI-H596; first compound 8 µM): 0.969
relative viability (HOP-62; first compound 0.253 µM): 0.89
relative viability (HOP-62; first compound 0.8 µM): 0.969
relative viability (HOP-62; first compound 2.53 µM): 0.837
relative viability (HOP-62; first compound 8 µM): 0.918
relative viability (LCLC-103H; first compound 0.253 µM): 1.11
relative viability (LCLC-103H; first compound 0.8 µM): 1.09
relative viability (LCLC-103H; first compound 2.53 µM): 1.05
relative viability (LCLC-103H; first compound 8 µM): 0.86
relative viability (COR-L 105; first compound 0.253 µM): 0.839
relative viability (COR-L 105; first compound 0.8 µM): 0.774
relative viability (COR-L 105; first compound 2.53 µM): 0.738
relative viability (COR-L 105; first compound 8 µM): 1.12
relative viability (CAL-12T; first compound 0.253 µM): 0.821
relative viability (CAL-12T; first compound 0.8 µM): 0.83
relative viability (CAL-12T; first compound 2.53 µM): 1.15
relative viability (CAL-12T; first compound 8 µM): 0.787
relative viability (HCC-44; first compound 0.253 µM): 0.648
relative viability (HCC-44; first compound 0.8 µM): 0.537
relative viability (HCC-44; first compound 2.53 µM): 0.738
relative viability (HCC-44; first compound 8 µM): 0.522
relative viability (EKVX; first compound 0.253 µM): 0.861
relative viability (EKVX; first compound 0.8 µM): 0.93
relative viability (EKVX; first compound 2.53 µM): 1.19
relative viability (EKVX; first compound 8 µM): 0.792
relative viability (NCI-H1793; first compound 0.253 µM): 1.02
relative viability (NCI-H1793; first compound 0.8 µM): 0.728
relative viability (NCI-H1793; first compound 2.53 µM): 1.13
relative viability (NCI-H1793; first compound 8 µM): 0.512
relative viability (NCI-H520; first compound 0.253 µM): 0.974
relative viability (NCI-H520; first compound 0.8 µM): 1.15
relative viability (NCI-H520; first compound 2.53 µM): 1.12
relative viability (NCI-H520; first compound 8 µM): 0.96
relative viability (201T; first compound 0.253 µM): 1.08
relative viability (201T; first compound 0.8 µM): 1.18
relative viability (201T; first compound 2.53 µM): 1.05
relative viability (201T; first compound 8 µM): 0.908
relative viability (NCI-H2009; first compound 0.253 µM): 1.19
relative viability (NCI-H2009; first compound 0.8 µM): 1.16
relative viability (NCI-H2009; first compound 2.53 µM): 1.24
relative viability (NCI-H2009; first compound 8 µM): 1.25
relative viability (NCI-H1437; first compound 0.253 µM): 0.992
relative viability (NCI-H1437; first compound 0.8 µM): 1.15
relative viability (NCI-H1437; first compound 2.53 µM): 1.21
relative viability (NCI-H1437; first compound 8 µM): 1.08
relative viability (HCC-827; first compound 0.253 µM): 0.939
relative viability (HCC-827; first compound 0.8 µM): 0.944
relative viability (HCC-827; first compound 2.53 µM): 0.995
relative viability (HCC-827; first compound 8 µM): 1.07
relative viability (NCI-H441; first compound 0.253 µM): 0.547
relative viability (NCI-H441; first compound 0.8 µM): 0.345
relative viability (NCI-H441; first compound 2.53 µM): 0.692
relative viability (NCI-H441; first compound 8 µM): 0.555
relative viability (H3255; first compound 0.253 µM): 0.996
relative viability (H3255; first compound 0.8 µM): 0.957
relative viability (H3255; first compound 2.53 µM): 1.06
relative viability (H3255; first compound 8 µM): 0.871
relative viability (EPLC-272H; first compound 0.253 µM): 1.24
relative viability (EPLC-272H; first compound 2.53 µM): 1.11
relative viability (EPLC-272H; first compound 8 µM): 0.843
relative viability (HCC-15; first compound 0.253 µM): 0.91
relative viability (HCC-15; first compound 2.53 µM): 0.975
relative viability (HCC-15; first compound 8 µM): 0.895
relative viability (NCI-H1355; first compound 0.253 µM): 0.827
relative viability (NCI-H1355; first compound 0.8 µM): 0.748
relative viability (NCI-H1355; first compound 2.53 µM): 0.864
relative viability (NCI-H1355; first compound 8 µM): 0.53
relative viability (PC-3 [JPC-3]; first compound 0.253 µM): 0.969
relative viability (PC-3 [JPC-3]; first compound 0.8 µM): 0.923
relative viability (PC-3 [JPC-3]; first compound 2.53 µM): 1
relative viability (PC-3 [JPC-3]; first compound 8 µM): 1.09

From the supplement of paper PMC10307832
